These are literature values, as cited in patent US20120148541A1, “COMPOSITIONS AND METHODS TO GENERATE PILOSEBACEOUS UNITS” (priority 2010, published 2012).

Molecules are shown by their SMILES.

The conditions of data set [1]: DMSO.
The conditions of data set [2]: in published reports.

On to `c1cc(-c2cnn3cc(-c4ccc(OCCN5CCCCC5)cc4)cnc23)ccn1` [Dorsomorphin, dorsomorphin], for which the solubility result in data set [1] is on record as “soluble in DMSO”. The toxicity result in data set [2] is on record as “low toxicity”.
